# Assay results from PubChem BioAssay AID1648 (Sanford-Burnham Center for Chemical Genomics, 2009).
# Calls of active or inactive are those of the source. How the calls were made is not given here.
# Biological target: Serine/threonine-protein kinase mTOR (Homo sapiens) (UniProt P42345)
# Assay: mTOR FRB domain ligand binding – biophysical, NMR (AID 1648)
# Conditions: NMR binding to FRB domain, chemical shift
# Sequence of Serine/threonine-protein kinase mTOR (Homo sapiens) (P42345 2015-2114): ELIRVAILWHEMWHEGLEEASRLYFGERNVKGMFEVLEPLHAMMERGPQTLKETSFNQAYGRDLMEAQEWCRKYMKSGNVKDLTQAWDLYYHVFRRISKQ
row,SMILES,Kd
1,CC1(C)C2CC(=O)[C@]3(C)C(CC[C@@]4(C)[C@H](c5ccoc5)OC(=O)[C@H]5O[C@]543)[C@@]2(C)C(=O)C[C@H]1O (stereo partly drawn),> 4 mM (inactive)
2,O=C1c2ccc(F)cc2C(=O)N1CO,> 4 mM (inactive)
3,COC(=O)Cc1cc(=O)n(-c2nc3ccccc3s2)[nH]1,> 4 mM (inactive)
4,O=C(NCc1ccco1)c1nc2ncccn2n1,> 4 mM (inactive)
5,COc1cc([C@@H]2c3cc4c(cc3[C@H](OC(C)=O)[C@H]3COC(=O)[C@@H]23)OCO4)cc(OC)c1OC,> 4 mM (inactive)
6,O=C(NCCCO)c1ccncc1,> 4 mM (inactive)
7,CC(C)=CCc1c(O)cc2oc(C)cc(=O)c2c1O,> 4 mM (inactive)
8,Cc1nnc(SCC(N)=O)c2ccccc12,> 4 mM (inactive)
9,NS(=O)(=O)c1ccccc1Cl,> 4 mM (inactive)
10,CC(=O)Oc1ccc2c(c1)c(C(C)=O)c(C)n2C,> 4 mM (inactive)
11,O=C(CSc1ccnc(=O)[nH]1)NCc1ccccc1,> 4 mM (inactive)
12,O=c1cnnc(SCCc2ccccc2)[nH]1,> 4 mM (inactive)
13,CCOc1ccc(-c2n[nH]c(=S)n2C)cc1,> 4 mM (inactive)
14,Cc1nnsc1C(=O)Nc1ccccc1[N+](=O)[O-],> 4 mM (inactive)
15,O=C(O)CCC(=O)Nc1nccs1,> 4 mM (inactive)
16,c1ccc(C2NCCc3[nH]cnc32)cc1 (stereo not drawn),> 4 mM (inactive)
17,O=C(O)c1ccc(Nc2nncc(=O)[nH]2)cc1,> 4 mM (inactive)
18,O=C(Cc1cccs1)Nc1ccon1,> 4 mM (inactive)
19,CC(=O)NC(=S)Nc1ccc(S(N)(=O)=O)cc1,> 4 mM (inactive)
20,CC(C)CCCC(C)C1CCC2C3=CC[C@H]4C[C@@H](O)CC[C@]4(C)C3CC[C@@]21C (stereo partly drawn),> 4 mM (inactive)
21,Cc1nn(-c2ccccc2C(=O)O)c(=O)c2ccccc12,> 4 mM (inactive)
22,Cc1nc(-c2ccc(C(=O)O)s2)cs1,> 4 mM (inactive)
23,NC(=O)c1cccc(N2C(=O)C=CC2=O)c1,> 4 mM (inactive)
24,COc1c2ccccc2nc2occc12,> 4 mM (inactive)

row,SMILES,Kd
1,Cc1csc(CCc2nc(C)cs2)n1,> 4 mM (inactive)
2,O=C(CC1SC(=O)NC1=O)Nc1nccs1 (stereo not drawn),> 4 mM (inactive)
3,COC(=O)c1ccc(Cl)c(NC(C)=O)c1,> 4 mM (inactive)
4,CC(=O)Nc1ccc(-c2nc(C)c(C(C)=O)n2O)cc1,> 4 mM (inactive)
5,Cc1nnsc1-c1onc(C)c1C(=O)O,> 4 mM (inactive)
6,Cc1cc(C(=O)NCc2cccs2)c(C)o1,> 4 mM (inactive)
7,NC(N)=Nc1nc2ccccc2o1,> 4 mM (inactive)
8,C=CCn1c(=S)[nH]c2ccc(Br)cc2c1=O,> 4 mM (inactive)
9,COc1cc2ccc(=O)oc2c(OC)c1OC,> 4 mM (inactive)
10,COc1cccc(Oc2ccc(N)cn2)c1,> 4 mM (inactive)
11,CC(C)(C)NC(=O)CN1C(=O)c2ccccc2S1(=O)=O,> 4 mM (inactive)
12,CNC(=O)Cn1c(=O)n(C)c2ccccc21,> 4 mM (inactive)
13,O=c1nc(NCc2ccco2)sc2ncccc12,> 4 mM (inactive)
14,Cc1occc1C(=O)N1CCC2(CC1)OCCO2,> 4 mM (inactive)
15,COC(=O)C1CCN(c2ccc(Cl)nn2)CC1,> 4 mM (inactive)
16,COc1ccccc1NC(=O)/C=N/O,> 4 mM (inactive)
17,CC(=O)O[C@H]1C[C@@]2(C)[C@@H](C[C@@H](O)C3[C@]2(C)CC[C@H]2[C@H](C)[C@H](O)CC[C@]32C)/C1=C(/CCC=C(C)C)C(=O)O (stereo partly drawn),> 4 mM (inactive)
18,Cc1nn2c3ccccc3nc2n(Cc2ccccc2)c1=O,> 4 mM (inactive)
19,Nc1cccc2c(=O)[nH][nH]c(=O)c12,> 4 mM (inactive)
20,COc1ccc(-c2cc(=O)c3c(OC)c(OC)c(OC)c(OC)c3o2)cc1OC,> 4 mM (inactive)
21,C/C(=N\NC(N)=S)C(=O)O,> 4 mM (inactive)
22,O=C(CNC(=O)c1cccs1)NC1=NCCS1,> 4 mM (inactive)
23,Cc1n[nH]c(C)c1N,> 4 mM (inactive)
24,NNC(=O)c1ccccc1-n1cccc1,> 4 mM (inactive)

row,SMILES,Kd
1,c1nnc2c3c4c(sc3ncn12)CCCC4,> 4 mM (inactive)
2,CN(Cc1nc2ccccc2n1C)S(C)(=O)=O,> 4 mM (inactive)
3,O=C(O)CN1C(=O)c2ccc(C(=O)O)cc2C1=O,> 4 mM (inactive)
4,O=S(=O)(NCc1ccco1)N1CCOCC1,> 4 mM (inactive)
5,O=c1nc(N2CCOCC2)nc2n1CCO2,> 4 mM (inactive)
6,COCC(=O)Nc1c(C(N)=O)oc2ccccc12,> 4 mM (inactive)
7,Cc1ccc(S(=O)(=O)CCc2ccccn2)cc1,> 4 mM (inactive)
8,Cc1cccc(NS(=O)(=O)c2cccs2)n1,> 4 mM (inactive)
9,COc1cc(OC)c2c(=O)c(-c3ccc4c(c3)OCO4)coc2c1,> 4 mM (inactive)
10,Cc1cc(SCCF)n2ncnc2n1,> 4 mM (inactive)
11,CCOC(=O)CC1NCCNC1=O (stereo not drawn),> 4 mM (inactive)
12,Cc1n[nH]c(C)c1CC(=O)O,> 4 mM (inactive)
13,Cc1[nH]c2ccccc2c1Cc1n[nH]c(=S)n1C,> 4 mM (inactive)
14,CC(=O)O[C@H]1C[C@@H](OC(C)=O)C(C)(C)C2C[C@@H](OC(C)=O)[C@@]3(C)C4=CC(=O)O[C@@H](c5ccoc5)[C@]4(C)CCC3[C@]21C (stereo partly drawn),> 4 mM (inactive)
15,C/C=C/c1ccc2c(c1)OCO2,> 4 mM (inactive)
16,COCC(=O)OCn1nnc2ccccc2c1=O,> 4 mM (inactive)
17,CCOC(=O)C1CN(C)CCN1C (stereo not drawn),> 4 mM (inactive)
18,c1ccc(SCc2nc(-c3ccncc3)no2)cc1,> 4 mM (inactive)
19,Cc1oc(-c2ccccc2)nc1CC(=O)O,> 4 mM (inactive)
20,CC(=O)O[C@H]1C[C@@H](OC(C)=O)C(C)(C)C2C[C@@H](OC(C)=O)[C@]3(C)C([C@H](OC(C)=O)C[C@@]4(C)[C@H](c5ccoc5)OC(=O)[C@H]5O[C@]543)[C@]21C (stereo partly drawn),> 4 mM (inactive)
21,CCNCC(O)c1ccc([N+](=O)[O-])cc1 (stereo not drawn),> 4 mM (inactive)
22,Nc1nnc(SCc2cccnc2)s1,> 4 mM (inactive)
23,O=c1[nH]c(NCCO)nnc1Cc1ccccc1,> 4 mM (inactive)
24,CC12CCC3C(CC3(C)C)C(C)(CCC1=O)O2 (stereo not drawn),> 4 mM (inactive)

row,SMILES,Kd
1,O=C1NNC(=O)C2C3c4ccccc4C(c4ccccc43)C12 (stereo not drawn),> 4 mM (inactive)
2,O=C(NC1CCS(=O)(=O)C1)c1ccccc1 (stereo not drawn),> 4 mM (inactive)
3,Nc1cccc(NC(=O)c2cccs2)c1,> 4 mM (inactive)
4,Cc1occc1C(=O)Nc1nccs1,> 4 mM (inactive)
5,O=C1C=CC2=C3c4cc(O)c(O)cc4C[C@@]3(O)COC2=C1,> 4 mM (inactive)
6,CC(=O)c1cccc(NS(=O)(=O)N2CCCCC2)c1,> 4 mM (inactive)
7,O=C(NCCCSc1ncccn1)Nc1ncccn1,> 4 mM (inactive)
8,COC(=O)c1c(OC)cc2c(c1C)Oc1c(Cl)c(O)c(Cl)c(C)c1C(=O)O2,> 4 mM (inactive)
9,COc1c(O)cc2c(-c3ccccc3)cc(=O)oc2c1OC,> 4 mM (inactive)
10,CC(=O)Nc1ccc(NC(C)=O)c(C(F)(F)F)c1,> 4 mM (inactive)
11,CCC(=O)Nc1cc(C(C)C)c(O)cc1C,> 4 mM (inactive)
12,Cc1n[nH]c(=S)[nH]c1=O,> 4 mM (inactive)
13,OCc1ccc(-c2ccccn2)s1,> 4 mM (inactive)
14,Cc1cc(C)nc(Nc2n[nH]c(Cc3ccccc3)n2)n1,> 4 mM (inactive)
15,CN1C(=O)CC[C@H]1c1cccnc1,> 4 mM (inactive)
16,CCCS(=O)(=O)N1CCN(c2ccccc2F)CC1,> 4 mM (inactive)
17,COc1cc(OC)c2c(c1Cl)OC1(C2=O)C(O)=CC(=O)CC1C (stereo not drawn),> 4 mM (inactive)
18,O=C(NCCO)c1ccccc1I,> 4 mM (inactive)
19,Cn1cnc2c(cnn2-c2ccccc2)c1=O,> 4 mM (inactive)
20,NCC(N)C(=O)c1ccccc1 (stereo not drawn),> 4 mM (inactive)
21,COc1ccc(C(=O)O)cc1OC,> 4 mM (inactive)
22,C=CCCCCCCCCCCCC(O)CC(O)COC(C)=O (stereo not drawn),> 4 mM (inactive)
23,CC(=O)O[C@H]1CC[C@@]2(C)C(=CCC3C2CC[C@@]2(C)C3CC[C@@H]2C(C)CCCC(C)C)C1 (stereo partly drawn),> 4 mM (inactive)
24,CP(C)(=O)c1cccc(C(=O)O)c1,> 4 mM (inactive)

row,SMILES,Kd
1,COC(=O)c1cncc(C(=O)OC)c1,> 4 mM (inactive)
2,O=C(O)CSc1nc2ccccc2c(=O)[nH]1,> 4 mM (inactive)
3,COc1cc2cc[n+]3cc4c(OC)c(OC)ccc4cc3c2cc1OC,> 4 mM (inactive)
4,Cc1c(C)c2c(c(C)c1O)CCC(C)(CCCC(C)CCCC(C)CCCC(C)C)O2 (stereo not drawn),> 4 mM (inactive)
5,CCOC(=O)c1csc(N)n1,> 4 mM (inactive)
6,CCSc1nnc(-c2ccccc2N)c(=O)[nH]1,> 4 mM (inactive)
7,C/C=C(\C)c1nnc(NC(=O)C(C)C)s1,> 4 mM (inactive)
8,CN(C)c1ccc(CNn2cnnc2)cc1,> 4 mM (inactive)
9,CNC(=O)C(=O)NCc1ccc(C)cc1,> 4 mM (inactive)
10,O=C(O)c1ccc2ccccc2n1,> 4 mM (inactive)
11,CCOC(=O)c1cc(C)[nH]n1,> 4 mM (inactive)
12,O=C(NCc1ccc2c(c1)OCO2)c1cccs1,> 4 mM (inactive)
13,Cc1ccc(NC(=O)C2CCN(S(C)(=O)=O)CC2)cc1,> 4 mM (inactive)
14,O=C(c1cccc(-n2cnnn2)c1)N1CCOCC1,> 4 mM (inactive)
15,CC(=O)Oc1ccc2c(c1C(C)C)CCC1C(C)(C)CCC[C@]21C (stereo partly drawn),> 4 mM (inactive)
16,CC(=O)c1ccc[nH]1,> 4 mM (inactive)
17,Cc1nc2nc(Cc3ccccc3)[nH]n2c(=O)c1Cl,> 4 mM (inactive)
18,COc1cc(O)c2c(=O)cc(-c3ccc(OC)c(-c4c(O)cc(O)c5c(=O)cc(-c6ccc(O)cc6)oc45)c3)oc2c1,> 4 mM (inactive)
19,COC(=O)c1sc(N)nc1C,> 4 mM (inactive)
20,CSc1cccc(NC(=O)c2c(Cl)cnn2C)c1,> 4 mM (inactive)
21,CCCCN1C(=O)N(C)C2NC(=O)NC21 (stereo not drawn),> 4 mM (inactive)
22,COC(=O)c1c(C)cc(OC(=O)c2c(C)cc(O)c(C=O)c2O)c(C)c1O,> 4 mM (inactive)
